Laboratory results reported in patent publication US8354423B2, “Insecticidal spironindane derivatives” (priority 2003, dated 2013).

melting point: 225 °C
SMILES: O=C(N/N=C1\CC2(CCN(C/C=C/c3ccc(Cl)cc3)CC2)c2ccccc21)Nc1ccc(OC(F)(F)F)cc1
